Laboratory results: the supplement of paper PMC10307832

Experiments:
Experiment in all cases: relative viability (nuclei count vs DMSO), 5 days (fraction); higher = more cells survive
Avagacestat + Crizotinib = compound: NC(=O)[C@@H](CCC(F)(F)F)N(Cc1ccc(-c2ncon2)cc1F)S(=O)(=O)c1ccc(Cl)cc1 [Avagacestat] + C[C@@H](Oc1cc(-c2cnn(C3CCNCC3)c2)cnc1N)c1c(Cl)ccc(F)c1Cl [Crizotinib] (partner 1 µM)
Method in brief: (§1)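 Lung cancer cell lines in 1536-well plates were dosed by pin tool the day after seeding, either with one drug alone or with a fixed anchor-drug dose plus five library-drug doses (not always all listed) in √10 steps. After 5 days, cells were fixed and their nuclei stained in one step (final 0.05% Triton X-100, 1% formaldehyde, 1 ug/ml Hoechst), then counted on 4× images. Relative viability is the nuclei count in treated wells divided by that in vehicle wells. Values are medians of duplicate plates.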

Avagacestat + Phenformin = compound: NC(=O)[C@@H](CCC(F)(F)F)N(Cc1ccc(-c2ncon2)cc1F)S(=O)(=O)c1ccc(Cl)cc1 [Avagacestat] + N=C(N)NC(=N)NCCc1ccccc1 [Phenformin] (partner 250 µM)
Method in brief: as §1

Avagacestat + Navitoclax = compound: NC(=O)[C@@H](CCC(F)(F)F)N(Cc1ccc(-c2ncon2)cc1F)S(=O)(=O)c1ccc(Cl)cc1 [Avagacestat] + CC1(C)CCC(c2ccc(Cl)cc2)=C(CN2CCN(c3ccc(C(=O)NS(=O)(=O)c4ccc(N[C@H](CCN5CCOCC5)CSc5ccccc5)c(S(=O)(=O)C(F)(F)F)c4)cc3)CC2)C1 [Navitoclax] (partner 0.5 µM)
Method in brief: as §1

Avagacestat + Decitabine = compound: NC(=O)[C@@H](CCC(F)(F)F)N(Cc1ccc(-c2ncon2)cc1F)S(=O)(=O)c1ccc(Cl)cc1 [Avagacestat] + Nc1ncn([C@H]2C[C@H](O)[C@@H](CO)O2)c(=O)n1 [Decitabine] (partner 2 µM)
Method in brief: as §1

Cell Line	relative viability (Avagacestat + Crizotinib; first compound 0.08 µM)	relative viability (Avagacestat + Crizotinib; first compound 0.253 µM)	relative viability (Avagacestat + Crizotinib; first compound 0.8 µM)	relative viability (Avagacestat + Crizotinib; first compound 2.53 µM)	relative viability (Avagacestat + Crizotinib; first compound 8 µM)	relative viability (Avagacestat + Phenformin; first compound 0.08 µM)	relative viability (Avagacestat + Phenformin; first compound 0.253 µM)	relative viability (Avagacestat + Phenformin; first compound 0.8 µM)	relative viability (Avagacestat + Phenformin; first compound 2.53 µM)	relative viability (Avagacestat + Phenformin; first compound 8 µM)	relative viability (Avagacestat + Navitoclax; first compound 0.08 µM)	relative viability (Avagacestat + Navitoclax; first compound 0.253 µM)	relative viability (Avagacestat + Navitoclax; first compound 0.8 µM)	relative viability (Avagacestat + Navitoclax; first compound 2.53 µM)	relative viability (Avagacestat + Navitoclax; first compound 8 µM)	relative viability (Avagacestat + Decitabine; first compound 0.08 µM)	relative viability (Avagacestat + Decitabine; first compound 0.253 µM)	relative viability (Avagacestat + Decitabine; first compound 0.8 µM)	relative viability (Avagacestat + Decitabine; first compound 2.53 µM)	relative viability (Avagacestat + Decitabine; first compound 8 µM)
201T	1.06	0.991	1.03	1.04	1.01	0.55	0.514	0.471	0.424	0.424	1.19	1.21	1.25	1.19	1.18	0.861	0.885	0.888	0.801	0.767
A549	1.27	1.26	0.771	0.808	0.623	0.276	0.218	0.181	0.226	0.538	1.64	1.65	1.27	1.26	1.25	0.331	0.254	0.296	0.31	0.259
A-427	0.986	1.19	0.842	0.75	0.837	0.312	0.27	0.312	0.268	0.296	0.994	0.99	1.03	0.967	0.968	0.549	0.583	0.565	0.619	0.601
ABC-1	1.05	1.59	1.53	1.09	1.09	0.232	0.228	0.221	0.25	0.263	–	–	–	–	–	1.12	1.26	1.07	1.17	1.24
BEN	0.835	1.12	0.835	0.607	0.809	0.262	0.274	0.271	0.25	0.26	0.0581	0.0757	0.141	0.061	0.0756	0.734	0.712	0.824	0.732	0.685
CAL-12T	0.607	0.52	0.717	0.627	0.679	0.721	0.578	0.662	0.614	0.403	1.52	1.44	1.3	1.32	1.22	–	–	–	–	–
COR-L23	0.678	0.642	0.552	0.643	0.441	0.463	0.444	0.423	0.435	0.359	1.57	1.31	1.04	1	0.814	0.519	0.406	0.434	0.399	0.39
COR-L 105	0.856	0.815	0.919	0.547	0.72	0.534	0.407	0.448	0.397	0.429	0.851	0.604	0.779	0.595	0.648	0.665	0.734	0.642	0.595	0.558
Calu-6	0.998	0.968	0.885	0.824	0.691	–	–	–	–	–	1.07	0.99	0.922	1.06	0.81	–	–	–	–	–
ChaGo-K-1	1.06	1.31	1.11	1.05	0.974	0.599	0.53	0.511	0.49	0.514	0.987	0.926	1.32	1.24	1.17	0.558	0.526	0.492	0.516	0.49
EBC-1	0.213	0.196	0.2	0.21	0.203	–	–	–	–	–	0.342	0.392	0.334	0.372	0.296	–	–	–	–	–
EKVX	1.02	1.35	1.06	0.899	0.857	0.234	0.259	0.278	0.256	0.229	1.12	1.15	1.04	0.792	0.853	0.391	0.299	0.378	0.354	0.36
EMC-BAC-2	0.797	0.844	0.766	0.704	0.719	0.518	0.607	0.574	0.522	0.489	1.46	1.54	1.38	1.1	1.17	1.1	1.06	1.09	1.07	1.07
EPLC-272H	1.06	0.988	1.03	0.969	0.799	0.309	0.321	0.321	0.306	0.328	1.51	1.13	1.32	1.21	0.964	0.421	0.435	0.4	0.322	0.352
H3255	1.05	1.07	1.01	0.872	0.865	0.357	0.352	0.326	0.353	0.431	0.504	0.59	0.71	0.431	0.498	0.619	0.731	0.678	0.591	0.542
HARA	1.23	1.27	1.06	1.03	0.76	0.486	0.516	0.42	0.486	0.42	1.39	1.27	1.23	1.17	1.2	0.4	0.377	0.621	0.435	0.448
HCC-15	0.871	0.911	0.695	0.715	0.779	0.617	0.592	0.512	0.491	0.378	0.87	0.806	0.799	0.732	0.591	0.791	0.745	0.705	0.575	0.523

Cell Line	relative viability (Avagacestat + Crizotinib; first compound 0.08 µM)	relative viability (Avagacestat + Crizotinib; first compound 0.253 µM)	relative viability (Avagacestat + Crizotinib; first compound 0.8 µM)	relative viability (Avagacestat + Crizotinib; first compound 2.53 µM)	relative viability (Avagacestat + Crizotinib; first compound 8 µM)	relative viability (Avagacestat + Phenformin; first compound 0.08 µM)	relative viability (Avagacestat + Phenformin; first compound 0.253 µM)	relative viability (Avagacestat + Phenformin; first compound 0.8 µM)	relative viability (Avagacestat + Phenformin; first compound 2.53 µM)	relative viability (Avagacestat + Phenformin; first compound 8 µM)	relative viability (Avagacestat + Navitoclax; first compound 0.08 µM)	relative viability (Avagacestat + Navitoclax; first compound 0.253 µM)	relative viability (Avagacestat + Navitoclax; first compound 0.8 µM)	relative viability (Avagacestat + Navitoclax; first compound 2.53 µM)	relative viability (Avagacestat + Navitoclax; first compound 8 µM)	relative viability (Avagacestat + Decitabine; first compound 0.08 µM)	relative viability (Avagacestat + Decitabine; first compound 0.253 µM)	relative viability (Avagacestat + Decitabine; first compound 0.8 µM)	relative viability (Avagacestat + Decitabine; first compound 2.53 µM)	relative viability (Avagacestat + Decitabine; first compound 8 µM)
HCC-44	0.92	0.905	0.846	0.838	0.699	0.167	0.171	0.198	0.21	0.195	1.14	1.13	0.948	0.76	0.874	0.991	0.944	0.985	0.968	0.986
HCC-78	0.322	0.343	0.338	0.322	0.314	0.71	0.763	0.811	0.66	0.724	0.884	0.818	0.791	0.665	0.68	0.675	0.726	0.75	0.683	0.669
IA-LM	1.98	1.36	1.09	0.879	1.1	–	–	–	–	–	1.25	1.3	1.34	1.21	1.18	–	–	–	–	–
LCLC-103H	1.03	1.09	1.01	0.967	0.831	0.344	0.298	0.348	0.343	0.294	–	–	–	–	–	0.753	0.76	0.776	0.561	0.583
NCI-H358	0.555	0.579	0.457	0.609	0.545	0.357	0.352	0.391	0.323	0.325	–	–	–	–	–	0.251	0.264	0.19	0.212	0.219
NCI-H522	–	–	–	–	–	0.71	0.59	0.669	0.641	0.649	–	–	–	–	–	0.782	0.674	0.681	0.606	0.614
NCI-H650	0.625	0.762	0.692	0.744	0.823	0.484	0.456	0.461	0.524	0.41	–	–	–	–	–	0.33	0.324	0.317	0.328	0.367
NCI-H661	1.12	1.06	1.05	1.3	0.968	0.301	0.293	0.298	0.296	0.3	–	–	–	–	–	0.585	0.568	0.608	0.56	0.558
NCI-H1299	1.01	1.05	0.952	0.98	0.91	–	–	–	–	–	1.04	1.03	1.08	1.08	1.04	–	–	–	–	–
NCI-H1395	–	–	–	–	–	0.424	0.456	0.432	0.45	0.457	1.12	1.23	1.03	0.903	1.11	0.719	0.717	0.67	0.692	0.681
NCI-H1563	0.883	0.751	0.83	0.801	0.708	0.665	0.669	0.746	0.646	0.658	–	–	–	–	–	–	–	–	–	–
NCI-H1648	–	–	–	–	–	–	–	–	–	–	–	–	–	–	–	0.469	0.392	0.265	0.363	0.37
NCI-H1703	0.975	0.777	0.864	0.587	0.581	–	–	–	–	–	1.16	0.993	1.17	1.11	0.891	–	–	–	–	–
NCI-H1793	–	–	–	–	–	0.411	0.291	0.337	0.284	0.319	0.434	0.491	0.507	0.347	0.396	0.504	0.532	0.508	0.472	0.496
NCI-H2228	0.472	0.487	0.427	0.465	0.423	0.417	0.263	0.271	0.296	0.243	1.25	1.19	1.08	0.903	0.956	–	–	–	–	–
NCI-H2342	–	–	–	–	–	0.634	0.53	0.629	0.59	0.588	–	–	–	–	–	0.738	0.686	0.706	0.695	0.742
SW 900	–	–	–	–	–	0.781	0.641	0.543	0.571	0.627	–	–	–	–	–	0.376	0.401	0.422	0.464	0.41
